Assay results from patent publication US7371768B2, “Pyrazol derivatives, pest control agent comprising the same as active ingredient, and process for producing the same” (Nihon Nohyaku Co., Ltd., priority 2000, dated 2008).
Like-named read-outs stand apart in the source and are kept apart here.

Assays:
[1] = system: Chinese hamster lung fibroblast line V79; test: In vitro intercellular metabolic cooperation inhibition test (IMC); format: cell-based
Protocol: In this Test Example, using an inhibitory action of gap-junctional intercellular communication as an index, the existence of carcinogenicity (tumor-promoting action) of a compound was investigated.
In this test, a mixed culture system of Chinese hamster lung fibroblast line V79 (hgprt+) having hypoxanthine-guanine phosphoribosyltransferase activity and cells having no such activity (hgprt−) was treated by adding thereto the following compounds together with 6-thioguanine (6-TG). When the intercellular communication is normal, the toxic metabolite of 6-TG formed in hgprt+ cells (6-TG sensitive) is transferred into hgprt− cells (6-TG resistant) through gap junction, so that both of the cells die. On the other hand, when the intracellular communication is inhibited by the test compound, only the hgprt− cells survive and form colonies.

[2] = system: Nilaparvata lugens; test: Insecticidal effect on larvae of brown rice planthopper through systemic activity (root uptake); format: in vivo; conditions: for Death rate (%) 0.8 ppm: 0.8 ppm agent solution at rice roots; for Death rate (%) 0.8 ppm / Death rate (%) 3.1 ppm: larvae placed after 3 days, 4th day, 25° C.; for Death rate (%) 3.1 ppm: 3.1 ppm agent solution at rice roots; for insecticidal activity through systemic property, in words: summary of Table 6
Protocol: Roots of young rice seedlings (height: about 10 cm) planted in a plastic cup were washed with water and soil was washed away so as not to damage the fine roots. The stem was pinched by a urethane tip (diameter: 3 cm, height: 2 cm) having a cut line and the roots were inserted into an Erlenmeyer flask to which 50 ml of an agent solution (an aqueous dilution of the agricultural and horticultural insecticide of the present invention prepared in accordance with Formulation Example 1) was placed beforehand (2 to 3 young rice seedlings/flask). The urethane chip was wedged into the mouse of the flask to fix the rice seedlings. A glass tube (diameter: 3 cm, height: 5 cm) was placed thereon, wedged into the urethane chip, and fixed with a tape. The flask in such state was kept in a constant temperature room at 25° C. for 3 days. Five larvae of Nilaparvata lugens were placed in the glass tube and then the tube was capped with a urethane chip, followed by keeping in the constant temperature room at 25° C. (duplicates at a concentration). The mortality and agony of the larvae were investigated on 4th day after the treatment to obtain a death rate (%) taking an agonizing insect as a ½ dead insect. This test was carried out on two agent solutions different in the concentration of the active ingredient. The results are shown in Table 6 (the compound numbers in the table correspond to the numbers in Table 1).
Additionally, as reference compounds, Compounds I, II and III described in JP-A-10-338676 were similarly tested.

[3] = system: Callosobruchus chinensis; test: Insecticidal effect on imagoes of adzuki bean weevil, spray test; format: in vivo; conditions: 500 ppm, sprayed, 25° C., after 4 days, agonizing insect counted as 1/2 dead
Protocol: Two adzuki beans were put in a glass cylinder (inner diameter: 3 cm×length: 15 cm), and 10 imagoes of Callosobruchus chinensis were set free therein. An agricutural and horticultural insecticide of the present invention was prepared in accordance with Formulation and diluted with water, and 0.3 ml of the resulting dilution was sprayed in the above glass cylinder with a spray tower (manufactured by Mizuho Rika) (duplicates at a concentration). The cylinder was kept in temperature room at 25° C., and the mortality and agony of thee larvae were investigated after 4 days from the treatment to obtain a death rate (%) taking an agonizing insect as a ½ dead insect. The results obtained are shown in Table 4 (the compound numbers in the table correspond to the numbers in Table 1).

[4] = system: Myzus persicae; test: Insecticidal effect on larvae of green peach aphid, leaf soak; format: in vivo; conditions: 500 ppm, leaves soaked about 5 seconds, 25° C., 4th day after treatment
Protocol: Water was put in a screw bottle (volume: 10 ml), and a leaftalk of Japanese radish was placed therein and then inoculated with 5 to 6 insects of Myzus persicae per leave. After the inoculation, the bottle was put in a glass cylinder (diameter: 3.5 cm; height: 15 cm, with a mesh cover), and the insects were let to proliferate in a constant temperature room kept at 25° C. for 3 days. The imagoes on the leaves were removed, and the leaves were soaked in an aqueous dilution of an agricultural and horticultural insecticide of the present invention prepared in accordance with Formulation Example 3 (for about 5 seconds) and then returned into the glass cylinder (duplicates at a concentration). The cylinder was kept in the constant temperature room at 25° C., and the number of the insects on the leaves was counted on the 4th day after the treatment to obtain a death rate (%) based on the results. The results obtained are shown in Table 5 (the compound numbers in the table correspond to the numbers in Table 1).

[5] = system: Nilaparvata lugens; test: Insecticidal effect on larvae of brown rice planthopper, spray test; format: in vivo; conditions: 500 ppm, sprayed, 4th instar larvae, 25° C., after 5 days; agonizing insect counted as 1/2 dead
Protocol: A rice seedling was planted in a glass cylinder (inner diameter: 3 cm×length: 17 cm), and five 4th instar larvae of Nilaparvata lugens were set free therein. An agricultural and horticultural insecticide of the present invention was prepared in accordance with Formulation Example 3 and diluted with water, and 0.5 ml of the resulting dilution was sprayed into the above glass cylinder with a spraying tower (manufactured by Mizuho Rika) (duplicates at a concentration). The cylinder was kept in a constant temperature room at 25° C., and the mortality and agony of the larvae were investigated after 5 days from the treatment to obtain a death rate (%) taking an agonizing insect as a ½ dead insect. The results obtained are shown in Table 2 (the compound numbers in the table correspond to the numbers in Table 1).

[6] = system: Plutella xylostella; test: Insecticidal effect on larvae of diamond back moth, cabbage leaf disc dip; format: in vivo; conditions: 500 ppm, 3-instar larvae, 25° C., after 4 days, agonizing insect counted as 1/2 dead
Protocol: A disc (diameter: 6 cm) cut out of a cabbage leaf was for 1 minute in an aqueous dilution of the agricultural and horticultural insecticide of the present invention prepared in accordance with Formulation Example 1, then air-dried, and placed in a plastic cup (inner diameter: 7 cm). Five 3-instar larvae of Plutella xylostella were set free in the cup (duplicates at a concentration). The cup was kept in a constant temperature room at 25° C., and the death and agony of the larvae were investigated after 4 days from the treatment to obtain a death rate (%) taking an agonizing insect as a ½ dead insect. The results are shown in Table 3 (the compound numbers in the following table below correspond to the numbers in Table 1).

[7] = system: Cat Flea; test: Insecticidal effect on cat flea, treated filter; format: in vivo; conditions: 0.7 mg/filter; mortality investigated on 1st day and 2nd day after treatment
Protocol: Onto a round filter (diameter: 10 cm) was added dropwise 0.7 ml of an agent solution diluted to a predetermined concentration. After drying, the filter was placed on the bottom of a cylinder (diameter: 10 cm×height: 30 cm). Ten fleas were set free therein and the mortality was investigated on 1st day and 2nd day after the treatment to calculate a death rate (%) based on the results. The results are shown in Table 7 (the compound numbers in the table correspond to the numbers in Table 1).

Row | SMILES | IMC test result (inhibition of gap-junctional intercellular communication, index of tumor-promoting action) [1] | colony forming rate ([1]; at 7.5 and 15 μg/ml, V79 hgprt+/hgprt- mixed culture with 6-thioguanine) | Death rate (%) 0.8 ppm [2] [%] | Death rate (%) 3.1 ppm [2] [%] | insecticidal activity through systemic property, in words [2] | Death rate (%) [3] [%] | Death rate (%) [4] [%] | Death rate (%) [5] [%] | Death rate (%) [6] [%] | IMC test result (inhibition of gap-junctional intercellular communication, index of tumor-promoting action) ([1]; V79 hgprt+/hgprt- mixed culture with 6-thioguanine) | Death rate (%) [7] [%]
1 | CSc1c(C#N)nn(-c2c(Cl)cc(C(F)(F)F)cc2Cl)c1NCc1ccncc1 [Compound I] | positive | significant increase | 100 | 100 | insecticidal activity through a high systemic property | – | – | – | – | – | –
2 | N#Cc1nn(-c2c(Cl)cc(C(F)(F)F)cc2Cl)c(NCc2ccncc2)c1SCF [Compound No. 1, 1-(2,6-dichloro-4-trifluoromethylphenyl)-4-fluoromethylthio-5-(pyridin-4-ylmethylamino)pyrazole-3-carbonitrile] | – | – | 100 | 100 | – | 100 | 100 | 100 | 100 | – | –
3 | N#Cc1nn(-c2c(Cl)cc(C(F)(F)F)cc2Cl)c(NCc2ccccn2)c1SC(F)F [Compound No. 2, 1-(2,6-dichloro-4-trifluoromethylphenyl)-4-difluoromethylthio-5-(pyridin-2-ylmethylamino)pyrazole-3-carbonitrile] | – | – | 100 | 100 | – | 100 | 100 | 100 | 100 | negative | 100
4 | N#Cc1nn(-c2c(Cl)cc(C(F)(F)F)cc2Cl)c(NCc2ccccn2)c1SC(F)(F)F [III] | – | – | 0 | 0 | obviously inferior effect | – | – | – | – | – | –
5 | N#Cc1nn(-c2c(Cl)cc(C(F)(F)F)cc2Cl)c(NCc2ccncc2)c1SC(F)(F)F [II] | – | – | 20 | 50 | obviously inferior effect | – | – | – | – | – | –
